The results in this text go back to ChEMBL document CHEMBL1140059, “Discovery of potent and selective small-molecule PAR-2 agonists” (J Med Chem, 2008).

Activity calls are given as the source filed them. No cut-off for these calls is given here. Square brackets hold non-standard residues; d marks the D form. Peptide text beside a SMILES is read from it. * marks the point of attachment. Orn = NCCC[C@H](N)C(=O)O; 2Furoyl = O=C(c1ccco1)*

In series [1] the target is Proteinase-activated receptor 2 (Homo sapiens) (UniProt P55085). The series can be described thus: Agonist activity at human PAR2 expressed in HEK293T cells assessed as effect on intracellular calcium mobilization by R-SAT assay relative to SLIGRL-NH2. It counts as functional, cell-based. Conditions: HEK-293T. (In general: Calcium assays in cells follow changes in intracellular calcium, usually with a dye or a luminescent sensor.)

Series [2] concerns the target T1, Proteinase-activated receptor 2 (Homo sapiens, UniProt P55085).
T1 sequence (P55085 whole entry): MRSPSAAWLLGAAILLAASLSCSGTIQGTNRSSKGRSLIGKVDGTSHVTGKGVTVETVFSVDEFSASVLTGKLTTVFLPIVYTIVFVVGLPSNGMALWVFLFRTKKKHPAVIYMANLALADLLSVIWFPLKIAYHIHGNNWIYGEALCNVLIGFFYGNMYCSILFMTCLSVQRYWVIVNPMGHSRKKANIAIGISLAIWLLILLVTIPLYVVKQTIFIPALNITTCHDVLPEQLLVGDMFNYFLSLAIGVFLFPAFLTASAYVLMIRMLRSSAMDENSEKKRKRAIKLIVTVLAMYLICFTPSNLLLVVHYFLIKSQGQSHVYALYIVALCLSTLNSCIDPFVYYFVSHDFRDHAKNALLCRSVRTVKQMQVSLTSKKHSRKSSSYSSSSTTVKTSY
The series can be described thus: Agonist activity at human PAR2 expressed in HEK293T cells assessed as effect on intracellular calcium mobilization by R-SAT assay. It is filed as functional, cell-based, HEK-293T.

Series [3] has as its target T2, Proteinase-activated receptor 4 (Homo sapiens) (UniProt Q96RI0).
T2 sequence (whole entry): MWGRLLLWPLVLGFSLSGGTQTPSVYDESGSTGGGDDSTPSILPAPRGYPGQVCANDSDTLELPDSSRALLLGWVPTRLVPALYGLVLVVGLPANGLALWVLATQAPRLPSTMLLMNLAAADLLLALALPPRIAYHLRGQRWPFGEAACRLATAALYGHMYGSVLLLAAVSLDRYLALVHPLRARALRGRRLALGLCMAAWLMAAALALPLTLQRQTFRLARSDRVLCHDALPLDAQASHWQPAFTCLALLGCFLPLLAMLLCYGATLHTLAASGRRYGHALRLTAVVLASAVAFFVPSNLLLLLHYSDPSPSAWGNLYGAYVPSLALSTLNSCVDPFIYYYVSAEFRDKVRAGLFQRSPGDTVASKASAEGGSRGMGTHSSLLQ
The series can be described thus: Agonist activity at PAR4. It is filed as functional.

The subject of series [4] is Rattus norvegicus. The series can be described thus: Induction nociception assessed as incidence of thermal hyperalgesia in intrapaw dosed rat. It is filed as functional, organism-based.
Series [5] has as its target T3, Proteinase-activated receptor 3 (Homo sapiens) (UniProt O00254).
T3 sequence (whole entry): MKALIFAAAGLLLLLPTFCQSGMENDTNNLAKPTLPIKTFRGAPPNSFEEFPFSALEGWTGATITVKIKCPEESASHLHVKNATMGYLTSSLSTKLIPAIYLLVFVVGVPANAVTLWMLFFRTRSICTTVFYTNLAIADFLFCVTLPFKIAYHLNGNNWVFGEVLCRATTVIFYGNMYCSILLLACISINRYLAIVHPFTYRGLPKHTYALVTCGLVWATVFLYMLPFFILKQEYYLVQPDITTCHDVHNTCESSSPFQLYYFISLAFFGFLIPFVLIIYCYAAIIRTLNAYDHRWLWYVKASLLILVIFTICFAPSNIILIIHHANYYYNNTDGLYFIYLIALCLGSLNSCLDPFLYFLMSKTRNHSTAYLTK
The series can be described thus: Agonist activity at PAR3. It is filed as functional.

The target of series [6] is Proteinase-activated receptor 2 (Homo sapiens) (UniProt P55085). The series can be described thus: Agonist activity at human PAR2 expressed in HEK293T cells assessed as effect on phosphatidyl inositol hydrolysis. It counts as functional, cell-based. The conditions noted are these: HEK-293T.
In series [7] the test system is Rattus norvegicus. The series can be described thus: Induction of inflammation assessed as incidence of paw edema in intrapaw dosed rat. It is filed as functional, organism-based.
In series [8] the target is T4, Proteinase-activated receptor 1 (Homo sapiens) (UniProt P25116).
T4 sequence (whole entry): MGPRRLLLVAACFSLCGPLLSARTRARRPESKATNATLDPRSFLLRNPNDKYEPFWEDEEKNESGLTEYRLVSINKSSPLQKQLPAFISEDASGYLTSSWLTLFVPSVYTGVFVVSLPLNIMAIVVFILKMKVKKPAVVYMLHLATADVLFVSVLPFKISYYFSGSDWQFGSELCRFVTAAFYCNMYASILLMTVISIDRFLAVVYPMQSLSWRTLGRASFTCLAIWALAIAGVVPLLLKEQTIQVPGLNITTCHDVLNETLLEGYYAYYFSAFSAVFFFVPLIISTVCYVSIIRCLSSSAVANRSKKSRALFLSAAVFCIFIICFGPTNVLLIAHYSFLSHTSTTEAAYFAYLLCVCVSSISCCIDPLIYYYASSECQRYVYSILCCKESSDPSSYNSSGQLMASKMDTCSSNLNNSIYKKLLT
Kind of series: Agonist activity at PAR1. It counts as functional.

A short description of series [9]: Metabolic stability in human liver microsomes assessed as intrinsic clearance. It counts as ADME, Microsome. In general terms: Liver microsomes are a subcellular fraction often used to study metabolism.
Series [10] in a line: Metabolic stability in rat liver microsomes assessed as intrinsic clearance. It counts as ADME, Microsome.
Series [11] is described as follows: Solubility in presence of 25% Tween. It counts as physicochemical.

`C/C(=N\NC(=O)[C@@H]1C(=O)NC[C@H]1c1ccccc1)c1cccc(Br)c1` (stereo in doubt; (-)-3) [listing 1 of 2 here]: in [1], the Efficacy worked out at 10%.
As for `CC[C@H](C)[C@H](NC(=O)[C@H](CC(C)C)NC(=O)c1ccco1)C(=O)NCC(=O)N[C@@H](CCCNC(=N)N)C(=O)N[C@@H](CC(C)C)C(=O)N[C@@H](CCCN)C(N)=O` (2Furoyl-LIGRL[Orn]-NH2), the Efficacy in series [1] turned out to be 89%.
The EC50 is the concentration that produces a half-maximal response. With `C/C(=N\NC(=O)[C@@H]1C(=O)NC[C@H]1c1cccc(Br)c1)c1cccc(Br)c1`, the EC50 in series [2] was 25.1 nM. In series [1], the Efficacy was 82%.
The matching figures for H-SLIGRL-NH2: 10000 nM and 100%.
Taken in the same sequence, the figures for `C/C(=N\N(C)C(=O)[C@@H]1C(=O)NC[C@H]1c1ccccc1)c1cccc(Br)c1` were 6310 nM and 35%.
As to `CC[C@H](C)[C@H](NC(=O)[C@H](CC(C)C)NC(=O)c1ccco1)C(=O)NCC(=O)N[C@@H](CCCN=C(N)N)C(=O)N[C@@H](CC(C)C)C(=O)N[C@@H](CCCN)C(N)=O` (2Furoyl-LIGRL[Orn]-NH2), in series [2], the EC50 was 25.1 nM.
Turning to `C/C(=N\NC(=O)[C@@H]1C(=O)NC[C@H]1c1ccccc1)c1cccs1`, the EC50 in series [2] was 6310 nM. Further, the Efficacy in series [1] was determined as 30%.
`C/C(=N\NC(=O)[C@@H]1C(=O)NC[C@H]1c1ccccc1)c1ccccc1Br`: the EC50 in [2] was 10000 nM. Also, in series [1], the Efficacy was determined as 11%.
The matching figures for `CC(C)=CN1C[C@@H](c2ccccc2)[C@H](C(=O)N/N=C(\C)c2cccc(Br)c2)C1=O`: 50.1 nM and 72%.
For `C/C(=N\NC(=O)[C@@H]1C(=O)NC[C@H]1c1ccccc1)c1cccc(Br)c1` (stereo in doubt; 3) [listing 1 of 2 here], the outcome in series [3], in series [5] and in series [8] was inactive. The Activity result in the series with Rattus norvegicus [4] and in the series with Rattus norvegicus [7] was “Dose-dependent effect” each time. In addition, the Efficacy in series [1] is 93%. In addition, the outcome in series [6] was Active.
Take `C/C(=N\NC(=O)[C@@H]1C(=O)NC[C@H]1c1ccccc1)c1cccc(Br)c1` (stereo in doubt; (+)-3) [listing 1 of 2 here]: the EC50 in [2] was 31.6 nM.
Take `O=C1NC[C@@H](c2ccccc2)[C@@H]1C(=O)N/N=C1\CCc2ccc(Br)cc21`: in series [2], the concentration giving a half-maximal response (EC50) is 126 nM. For the same molecule, in series [1], the Efficacy is 62%.
Taken in the same sequence, the figures for `C/C(=N\NC(=O)[C@@H]1C(=O)NC[C@H]1c1ccccc1)c1ccc(Br)s1` were 2510 nM and 49%.
For orientation: microsomal CLint means a measure of how fast metabolising enzymes remove a compound, apart from limits set by blood flow. In the case of `C/C(=N\NC(=O)C(NC(=O)c1ccccc1)c1n[nH]c(=O)c2ccccc12)c1cccc(Br)c1` (stereo not given), the outcome in series [3], in [5] and in [8] was inactive. Also, the EC50 in series [2] is 200 nM. Also, the results for the microsomal CLint in [9] and in [10] were 19 µL/min/mg and 6 µL/min/mg, respectively. The Activity result with Rattus norvegicus [4] and with Rattus norvegicus [7] was “Dose-dependent effect” throughout. Besides, the Efficacy in series [1] amounted to 81%. In addition, in [6], the result was Active.
Regarding `C/C(=N\NC(=O)[C@@H]1C(=O)NC[C@H]1c1ccccc1)c1cccc(Br)c1` (stereo in doubt; (+)-3) [listing 2 of 2 here], the Efficacy in series [1] amounted to 91%.
In general, solubility refers to the dissolved amount per volume that the medium holds. On to `C/C(=N\NC(=O)[C@@H]1C(=O)NC[C@H]1c1ccccc1)c1cccc(Br)c1` (stereo in doubt; 3) [listing 2 of 2 here], for which, in [2], the EC50 was 31.6 nM. Besides, the intrinsic clearance (microsomal CLint) in series [9] stood at 9 µL/min/mg; in series [10] it was 37 µL/min/mg. In series [11], the solubility was > 2000 µg/mL.
In the case of `C/C(=N\NC(=O)[C@@H]1C(=O)NC[C@H]1c1ccccc1)c1cccc(Br)c1` (stereo in doubt; (-)-3) [listing 2 of 2 here], the half-maximal effective concentration (EC50) in series [2] was > 10000 nM.
On to `C/C(=N\NC(=O)[C@@H]1C(=O)NC[C@H]1c1ccccc1)c1ccc(Br)cc1`, for which the concentration giving a half-maximal response (EC50) in series [2] was 7940 nM. In addition, in series [1], the Efficacy worked out at 32%.
